Test results as given in article PMC10447463, “Data-mining unveils structure–property–activity correlation of viral infectivity enhancing self-assembling peptides” (Nature Communications, 2023).
Where two headings read alike, the source gives them in different places.

How the values were obtained:
[1] = assay type: physicochemical; conditions: for ThT Cat. / ThT-Fluorescence (categorical): ThT-active if fluorescence at least twice the control
Outline: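 Preformed peptide fibrils (1 mg/mL) mixed with 50 µM ThT in PBS, 15 min at RT, fluorescence ex 440/em 488 nm versus PBS blank, triplicates. Zeta potential: peptides at 1 mg/mL in PBS pH 7.4, aged 1 d at RT, diluted in 1 mM KCl, Smoluchowski from electrophoretic mobility.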

[2] = Turbidity, derived count rate of scattered light; assay type: physicochemical; conditions: for Count Rate / kcps: derived count rate of scattered light at 633 nm, 173°, from zeta-potential measurement, 0.1 mg/mL in 1 mM KCl after 1 d at 1 mg/mL in PBS, turbidity / microscopic aggregation, mean of triplicate; for Log Count Rate: log of derived count rate
Outline: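 Samples: 1 mg/mL in PBS pH 7.4 (from DMSO), 1 d at RT, then diluted in 1 mM KCl immediately before measurement. Triplicates, two independent runs averaged.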

[3] = Log10 of derived count rate of scattered light (turbidity)
[4] = turbidity, Log10 of derived count rate of scattered light, Figure 3A source data
[5] = ThT fluorescence relative to blank (42.1851851851852 a.u.)
[6] = relative to blank 42.1851851851852 a.u.
[7] = Fig S8 panels A, C, asymmetric log errors
[8] = Fig S8 panels B, D, turbidity, derived count rate of scattered light
[9] = category 1 or 0 from count rate, key not given
[10] = derived count rate of scattered light
[11] = derived count rate of scattered light, mean, std deviation in next column
[12] = derived count rate of scattered light, mean, std deviation in separate column
[13] = ThT fluorescence relative to blank, blank = 42.1851851851852
[14] = category 1 or 0 derived from the count rate, key not given
[15] = derived count rate from zeta measurement, mean

## KFKFQFNMW
[1]; Fig S10 panel D
  Tht category (> 2 to blank = +): 0 (ThT-inactive (N-Fold <2))
[1]; ThT category, 1 if Rel. ThT >2
  ThT Cat,: 0 (ThT-inactive (N-Fold <2))
  ThT Cat.: 0 (ThT-inactive (N-Fold <2))
[1]
  ThT Cat. / ThT-Fluorescence (categorical): 0 (ThT-inactive (N-Fold <2))
[2]; [3]
  Log10 Count Rate: 2.785
[2]
  Count Rate / kcps: 610 kcps
[2]; [4]
  Log10 Count Rate: 2.785
[2]; turbidity, log10 of derived count rate of scattered light
  Log10 Count Rate: 2.785

## KFKFQFNMWQ [JG4]
[1]; FigS26
  Tht category (> 1.5 to blank = +): 1 (Tht category (> 1.5 to blank = +))
[1]; [5]
  Tht rel to blank (42.1851851851852): 2.807
[1]; category 1/0
  Tht category (> 1.5 to blank = +): 1 (ThT. Cat is 1, if Rel. ThT >2)
[1]; category from ThT rel to blank
  Tht category (> 1.5 to blank = +): 1 (ThT. Cat is 1, if Rel. ThT >2)
[1]; [6]
  Tht rel to blank (42.1851851851852): 2.807
[2]; [7]
  Log Count Rate: 2.866
[2]; Fig S8 panels B, D
  Log Count Rate: 2.866
[2]; [8]
  Count Rate: 734.63
[2]; category 1/0, no key printed
  Zeta Count Rate Category: 1
[2]; [9]
  Zeta Count Rate Category: 1
[2]; category from count rate, key not given
  Zeta Count Rate Category: 1
[2]; [10]
  Zeta Count Rate / kcps: 734.6 kcps
[2]; [11]
  Zeta Count Rate / kcps: 734.6 kcps
[2]; [12]
  Zeta Count Rate / kcps: 734.6 kcps

## KFKFQFW [TM71]
[1]; [5]
  Tht rel to blank (42.1851851851852): 3.529
[1]; [13]
  Tht rel to blank (42.1851851851852): 3.529
[1]; category 1/0
  Tht category (> 1.5 to blank = +): 1 (ThT. Cat is 1, if Rel. ThT >2)
[1]; [6]
  Tht rel to blank (42.1851851851852): 3.529
[2]; category 1 / 0, no key given
  Zeta Count Rate Category: 1
[2]; [14]
  Zeta Count Rate Category: 1
[2]; [10]
  Zeta Count Rate / kcps: 121.9 kcps
[2]; [11]
  Zeta Count Rate / kcps: 121.9 kcps
[2]; [12]
  Zeta Count Rate / kcps: 121.9 kcps

## KFKQFFNMWQ [JG5]
[1]; [5]
  Tht rel to blank (42.1851851851852): 1.589
[1]; [13]
  Tht rel to blank (42.1851851851852): 1.589
[1]; category 1/0
  Tht category (> 1.5 to blank = +): 0 (ThT-inactive (N-Fold <2))
[2]; category 1 / 0, no key given
  Zeta Count Rate Category: 1
[2]; [9]
  Zeta Count Rate Category: 1
[2]; [10]
  Zeta Count Rate / kcps: 236.9 kcps
[2]; [11]
  Zeta Count Rate / kcps: 236.9 kcps

## KIKIKIKIYYYY [JR7]
[1]; [5]
  Tht rel to blank (42.1851851851852): 1.259
[2]; [14]
  Zeta Count Rate Category: 1
[2]; [11]
  Zeta Count Rate / kcps: 9918 kcps

## KIKIKIQI [TG13]
[1]; [5]
  Tht rel to blank (42.1851851851852): 2.036
[1]; [13]
  Tht rel to blank (42.1851851851852): 2.036
[1]; category 1/0
  Tht category (> 1.5 to blank = +): 1 (ThT. Cat is 1, if Rel. ThT >2)
[2]; category 1 / 0, no key given
  Zeta Count Rate Category: 1
[2]; [9]
  Zeta Count Rate Category: 1
[2]; [10]
  Zeta Count Rate / kcps: 999.1 kcps
[2]; [11]
  Zeta Count Rate / kcps: 999.1 kcps

## KIKIKIQINMWQ [VH9]
[1]; [5]
  Tht rel to blank (42.1851851851852): 1.586
[2]; [9]
  Zeta Count Rate Category: 1
[2]; [11]
  Zeta Count Rate / kcps: 1603.1 kcps

## KIKIQI [JJA4]
[1]; [5]
  Tht rel to blank (42.1851851851852): 1.097
[1]; category 1/0
  Tht category (> 1.5 to blank = +): 0 (ThT-inactive (N-Fold <2))
[1]; [6]
  Tht rel to blank (42.1851851851852): 1.097
[2]; category 1/0, no key printed
  Zeta Count Rate Category: 1
[2]; [9]
  Zeta Count Rate Category: 1
[2]; [11]
  Zeta Count Rate / kcps: 108.3 kcps
[2]; [12]
  Zeta Count Rate / kcps: 108.3 kcps

## KIKIQIC [TM112 / CN11]
[1]; FigS26
  Tht category (> 1.5 to blank = +): 1 (Tht category (> 1.5 to blank = +))
[1]; [5]
  Tht rel to blank (42.1851851851852): 4.12
[1]; [13]
  Tht rel to blank (42.1851851851852): 4.12
[1]; category 1/0
  Tht category (> 1.5 to blank = +): 1 (ThT. Cat is 1, if Rel. ThT >2)
[2]; [7]
  Log Count Rate: 2.992
[2]; Fig S8 panels B, D
  Log Count Rate: 2.992
[2]; [8]
  Count Rate: 980.67
[2]; category 1 / 0, no key given
  Zeta Count Rate Category: 1
[2]; [14]
  Zeta Count Rate Category: 1
[2]; [9]
  Zeta Count Rate Category: 1
[2]; [10]
  Zeta Count Rate / kcps: 980.7 kcps
[2]; [11]
  Zeta Count Rate / kcps: 980.7 kcps

## KIKIQINM [JGB2]
[1]; [5]
  Tht rel to blank (42.1851851851852): 1.587
[1]; category 1/0
  Tht category (> 1.5 to blank = +): 0 (ThT-inactive (N-Fold <2))
[1]; [6]
  Tht rel to blank (42.1851851851852): 1.587
[2]; category 1/0, no key printed
  Zeta Count Rate Category: 1
[2]; [9]
  Zeta Count Rate Category: 1
[2]; [11]
  Zeta Count Rate / kcps: 262.1 kcps
[2]; [12]
  Zeta Count Rate / kcps: 262.1 kcps

## KIKIQINMW [JGB1 /TM85]
[1]; [5]
  Tht rel to blank (42.1851851851852): 4.61
[1]; category 1/0
  Tht category (> 1.5 to blank = +): 1 (ThT. Cat is 1, if Rel. ThT >2)
[1]; [6]
  Tht rel to blank (42.1851851851852): 4.61
[2]; [9]
  Zeta Count Rate Category: 1
[2]; [11]
  Zeta Count Rate / kcps: 239.6 kcps
[2]; [12]
  Zeta Count Rate / kcps: 239.6 kcps

## KIKIQINMWQ [JG1]
[1]; FigS26
  Tht category (> 1.5 to blank = +): 1 (Tht category (> 1.5 to blank = +))
[1]; [5]
  Tht rel to blank (42.1851851851852): 5.939
[1]; category 1/0
  Tht category (> 1.5 to blank = +): 1 (ThT. Cat is 1, if Rel. ThT >2)
[1]; [6]
  Tht rel to blank (42.1851851851852): 5.939
[2]; category 1/0, no key printed
  Zeta Count Rate Category: 1
[2]; [9]
  Zeta Count Rate Category: 1
[2]; [11]
  Zeta Count Rate / kcps: 2196 kcps
[2]; [12]
  Zeta Count Rate / kcps: 2196 kcps

## KIKQII [msis21]
[1]; [5]
  Tht rel to blank (42.1851851851852): 1.001
[1]; [13]
  Tht rel to blank (42.1851851851852): 1.001
[1]; category 1/0
  Tht category (> 1.5 to blank = +): 0 (ThT-inactive (N-Fold <2))
[2]; category 1 / 0, no key given
  Zeta Count Rate Category: 1
[2]; [9]
  Zeta Count Rate Category: 1
[2]; [15]
  Zeta Count Rate / kcps: 122 kcps
[2]; [10]
  Zeta Count Rate / kcps: 122 kcps
[2]; [11]
  Zeta Count Rate / kcps: 122 kcps
[2]; key not given
  Zeta Count Rate Category: 1

## KIKQIINM [JGA2]
[1]; [5]
  Tht rel to blank (42.1851851851852): 1.176
[2]; [9]
  Zeta Count Rate Category: 1
[2]; [15]
  Zeta Count Rate / kcps: 2481 kcps
[2]; [11]
  Zeta Count Rate / kcps: 2481 kcps
[2]; key not given
  Zeta Count Rate Category: 1

## KIKQIINMWQ [JG2]
[1]; FigS26
  Tht category (> 1.5 to blank = +): 1 (Tht category (> 1.5 to blank = +))
[1]; [5]
  Tht rel to blank (42.1851851851852): 4.945
[1]; [13]
  Tht rel to blank (42.1851851851852): 4.945
[1]; category 1/0
  Tht category (> 1.5 to blank = +): 1 (ThT. Cat is 1, if Rel. ThT >2)
[2]; [7]
  Log Count Rate: 2.789
[2]; Fig S8 panels B, D
  Log Count Rate: 2.789
[2]; [8]
  Count Rate: 615.53
[2]; category 1 / 0, no key given
  Zeta Count Rate Category: 1
[2]; [9]
  Zeta Count Rate Category: 1
[2]; [15]
  Zeta Count Rate / kcps: 615.5 kcps
[2]; [10]
  Zeta Count Rate / kcps: 615.5 kcps
[2]; [11]
  Zeta Count Rate / kcps: 615.5 kcps
[2]; key not given
  Zeta Count Rate Category: 1

## KLKLQLL [TG4 / (KM2)]
[1]; [5]
  Tht rel to blank (42.1851851851852): 0.8415
[1]; [13]
  Tht rel to blank (42.1851851851852): 0.8415
[1]; category 1/0
  Tht category (> 1.5 to blank = +): 0 (ThT-inactive (N-Fold <2))
[2]; category 1 / 0, no key given
  Zeta Count Rate Category: 0
[2]; [14]
  Zeta Count Rate Category: 0
[2]; [10]
  Zeta Count Rate / kcps: 72.67 kcps
[2]; [11]
  Zeta Count Rate / kcps: 72.67 kcps

## KLKQLL
[1]; Fig S10 panel D
  Tht category (> 2 to blank = +): 0 (ThT-inactive (N-Fold <2))
[1]; FigS12 panel A
  Tht category (> 2 to blank = +): 0 (ThT-inactive (N-Fold <2))
[1]; FigS12 panel B
  ThT Cat,: 0 (ThT-inactive (N-Fold <2))
[1]; ThT category, 1 if Rel. ThT >2
  ThT Cat,: 0 (ThT-inactive (N-Fold <2))
[1]; ThT fluorescence category, 1 if Rel. ThT >2
  ThT Cat.: 0 (ThT-inactive (N-Fold <2))
[1]
  ThT Cat. / ThT-Fluorescence (categorical): 0 (ThT-inactive (N-Fold <2))
[2]; [3]
  Log10 Count Rate: 2.505
[2]
  Count Rate / kcps: 320 kcps
[2]; log10 of derived count rate of scattered light (turbidity)
  Log10 Count Rate: 2.505
[2]; [4]
  Log10 Count Rate: 2.505

## KLKQLL [KM27 / psis14]
[1]; [5]
  Tht rel to blank (42.1851851851852): 1.089
[1]; [13]
  Tht rel to blank (42.1851851851852): 1.089
[1]; category 1/0
  Tht category (> 1.5 to blank = +): 0 (ThT-inactive (N-Fold <2))
[2]; category 1 / 0, no key given
  Zeta Count Rate Category: 1
[2]; [14]
  Zeta Count Rate Category: 1
[2]; [10]
  Zeta Count Rate / kcps: 319.9 kcps
[2]; [11]
  Zeta Count Rate / kcps: 319.9 kcps

## KWKWQW [KB3]
[1]; category 1/0
  Tht category (> 1.5 to blank = +): 0 (ThT-inactive (N-Fold <2))
[1]; [6]
  Tht rel to blank (42.1851851851852): 1.518
[2]; [7]
  Log Count Rate: 3.189
[2]; Fig S8 panels B, D
  Log Count Rate: 3.189
[2]; [8]
  Count Rate: 1544.87
[2]; category 1/0, no key printed
  Zeta Count Rate Category: 1
[2]; [11]
  Zeta Count Rate / kcps: 1545 kcps
